Test results published in the supplement of paper PMC4862054.

Columns and labels:
HCC1599 [1] = experiment: drug sensitivity score (DSS), CellTiter-Blue viability (DSS (AUC-based score)); higher = stronger viability inhibition; extreme values may be limits of the assay; conditions: incubation time: 72 h
Experimental: (§1)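 DSRT with the CellTiter-Blue (resazurin reduction) viability readout, fluorescence 560/590 nm, 72 h incubation. Plates were normalised to DMSO and benzethonium chloride controls. DSS is computed from the area under the fitted dose-response curve (5 or 9 concentrations).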

MDA-MB-436 [2] = experiment: as above; conditions: incubation time: 72 h
Experimental: as §1

CAL-148 [3] = experiment: as above; conditions: incubation time: 72 h
Experimental: as §1

HCC1937 [4] = experiment: as above; conditions: incubation time: 72 h
Experimental: as §1

HDQ-P1 = conditions: 72 h
Summary of the method: (§2)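 Per-plate normalisation used 0.1 % DMSO and a positive kill control. Breast cancer cell lines (20 µl suspension) were seeded into 384-well plates containing compound at 5 concentrations in 10-fold steps across a compound-specific 10,000-fold range, incubated for 72 h, and read first for CellTox Green fluorescence (485/520 nm), then for CellTiter-Glo luminescence. EC50 was fitted from the dose-response curves and censored at the top concentration.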

HCC1599 [5] = conditions: 72 h
Summary of the method: as §2

MFM-223 = conditions: 72 h
Summary of the method: as §2

MDA-MB-453 = conditions: 72 h
Summary of the method: as §2

CAL-85-1 = conditions: 72 h
Summary of the method: as §2

SK-BR-3 = conditions: 72 h
Summary of the method: as §2

Hs578T = conditions: 72 h
Summary of the method: as §2

CAL-51 = conditions: 72 h
Summary of the method: as §2

MDA-MB-436 [6] = conditions: 72 h
Summary of the method: as §2

MDA-MB-231 = conditions: 72 h
Summary of the method: as §2

DU-4475 = conditions: 72 h
Summary of the method: as §2

CAL-148 [7] = conditions: 72 h
Summary of the method: as §2

HCC1937 [8] = conditions: 72 h
Summary of the method: as §2

BT-549 = conditions: 72 h
Summary of the method: as §2

BT-474 = conditions: 72 h
Summary of the method: as §2

MCF-10A = conditions: 72 h
Summary of the method: as §2

HCC1143 = conditions: 72 h
Summary of the method: as §2

CAL-120 = conditions: 72 h
Summary of the method: as §2

Row | SMILES | drug sensitivity score (HCC1599 [1]) | drug sensitivity score (MDA-MB-436 [2]) | drug sensitivity score (CAL-148 [3]) | drug sensitivity score (HCC1937 [4]) | EC50, CellTiter-Glo (HDQ-P1) [nM] | EC50, CellTiter-Glo (HCC1599 [5]) [nM] | EC50, CellTiter-Glo (MFM-223) [nM] | EC50, CellTiter-Glo (MDA-MB-453) [nM] | EC50, CellTiter-Glo (CAL-85-1) [nM] | EC50, CellTiter-Glo (SK-BR-3) [nM] | EC50, CellTiter-Glo (Hs578T) [nM] | EC50, CellTiter-Glo (CAL-51) [nM] | EC50, CellTiter-Glo (MDA-MB-436 [6]) [nM] | EC50, CellTiter-Glo (MDA-MB-231) [nM] | EC50, CellTiter-Glo (DU-4475) [nM] | EC50, CellTiter-Glo (CAL-148 [7]) [nM] | EC50, CellTiter-Glo (HCC1937 [8]) [nM] | EC50, CellTiter-Glo (BT-549) [nM] | EC50, CellTiter-Glo (BT-474) [nM] | EC50, CellTiter-Glo (MCF-10A) [nM] | EC50, CellTiter-Glo (HCC1143) [nM] | EC50, CellTiter-Glo (CAL-120) [nM]
1 | c1ccc2c(CCNc3ccc(Nc4ccncc4)cc3)c[nH]c2c1 [Serdemetan] | 1.87 | 8.76 | 4.36 | 0 | 1230 | 5240 | > 10000 | 8860 | 8460 | 2780 | 9710 | 315 | 8140 | 6230 | 2370 | 2490 | > 10000 | 1730 | 4650 | – | – | –
2 | S=P(N1CC1)(N1CC1)N1CC1 [Thio-TEPA] | 0 | 0 | 0 | 0 | – | – | – | – | – | – | – | – | – | – | – | – | – | 8210 | – | – | – | –
3 | CN(C)CCOc1ccc(/C(=C(/CCCl)c2ccccc2)c2ccccc2)cc1 [Toremifene] | 0 | 1.83 | 0 | 0 | – | – | 7340 | – | – | – | – | – | – | – | – | – | 9750 | – | 3620 | 1710 | – | –
4 | CC(C)C[C@@H](C(=O)N[C@H](C(=O)OC1CCCC1)c1ccccc1)[C@H](O)C(=O)NO [Tosedostat] | 0 | 1.84 | 7.49 | 14.9 | 630 | – | 528 | 55.8 | 182 | – | 8270 | 854 | 335 | 366 | – | 327 | 81.3 | 125 | 93.2 | – | 405 | 127
5 | COc1cc2c(NC3CCN(C(C)C)CC3)nc(N3CCC(F)(F)CC3)nc2cc1OCCCN1CCCC1 [UNC0642] | – | – | – | – | 9830 | – | 5790 | 3150 | 2990 | 6170 | – | – | 4100 | 4720 | – | 5460 | > 10000 | – | 7620 | 6610 | – | –
6 | COc1cc2/c(=N/c3ccc(Br)cc3F)nc[nH]c2cc1OCC1CCN(C)CC1 [Vandetanib] | 0 | 13 | 0 | 0 | – | – | 370 | – | – | – | – | > 1000 | > 1000 | – | – | – | – | – | 110 | 150 | – | > 1000
